Consider 13 molecules from ChEMBL document CHEMBL1275509, “Plasmid-encoded carbapenem-hydrolyzing beta-lactamase OXA-48 in an imipenem-susceptible Klebsiella pneumoniae strain from Belgium” (2008).

Converted amounts (≈) assume the structure as drawn.

The test system of test [1] is Klebsiella pneumoniae. Description: Antibacterial activity against Klebsiella pneumoniae 11978 harboring plasmid pA-1carrying beta-lactamase OXA-48 by Etest method in presence of beta-lactamase inhibitor clavulanic acid. It is filed as functional.
For test [2], the system named is Escherichia coli. In words: Antibacterial activity against Escherichia coli J53 harboring plasmid-encoded beta-lactamase OXA-48 by Etest method. It is filed as functional.
For test [3], the system named is Klebsiella pneumoniae. In words: Antibacterial activity against human urinary Klebsiella pneumoniae UCL-1 harboring plasmid-encoded beta-lactamase OXA-48 by Etest method in presence of beta-lactamase inhibitor clavulanic acid. It is filed as functional. Conditions: UCL-1, Urine.
For test [4], the system named is Escherichia coli. Description: Antibacterial activity against Escherichia coli J53 harboring plasmid pA-1carrying beta-lactamase OXA-48 by Etest method in presence of beta-lactamase inhibitor clavulanic acid. It is filed as functional.
The test system of test [5] is Klebsiella pneumoniae. In words: Antibacterial activity against Klebsiella pneumoniae 11978 harboring plasmid pA-1carrying beta-lactamase OXA-48 by Etest method. It is filed as functional.
The test system of test [6] is Escherichia coli. Description: Antibacterial activity against Escherichia coli J53 by Etest method. It is filed as functional.
The subject of test [7] is Klebsiella pneumoniae. In words: Antibacterial activity against human urinary Klebsiella pneumoniae UCL-1 harboring plasmid-encoded beta-lactamase OXA-48 by Etest method. It is filed as functional. Conditions: UCL-1, Urine.
Test [8] deals with Escherichia coli. In words: Antibacterial activity against Escherichia coli J53 by Etest method in presence of beta-lactamase inhibitor clavulanic acid. It is filed as functional.
Test [9] concerns Escherichia coli. Description: Antibacterial activity against Escherichia coli J53 harboring plasmid pA-1carrying beta-lactamase OXA-48 by Etest method. It is filed as functional.
For test [10], the system named is Escherichia coli. In words: Antibacterial activity against Escherichia coli J53 harboring plasmid-encoded beta-lactamase OXA-48 by Etest method in presence of beta-lactamase inhibitor clavulanic acid. It is filed as functional.
Test [11] concerns the target Beta-lactamase OXA-48 (Klebsiella pneumoniae) (UniProt Q6XEC0). Description: Compound hydrolyzing activity of Klebsiella pneumoniae beta-lactamase OXA-48. The following applies: UCL-1.
In test [12] the test system is Klebsiella pneumoniae. Description: Antibacterial activity against amoxicillin and amoxicillin-clavulanate resistant Klebsiella pneumoniae UCL-1 assessed as zone of inhibition by disk diffusion method. It is filed as functional. For orientation: Agar diffusion results depend on both activity and mobility in agar.
The subject of test [13] is Escherichia coli. Description: Antibacterial activity against Escherichia coli J53 harboring plasmid pA-1carrying beta-lactamase OXA-48 by Etest method in presence of beta-lactamase inhibitor Tazobactam. It is filed as functional.
Test [14] deals with Klebsiella pneumoniae. Description: Antibacterial activity against Klebsiella pneumoniae 11978 harboring plasmid pA-1carrying beta-lactamase OXA-48 by Etest method in presence of beta-lactamase inhibitor Tazobactam. It is filed as functional.
Test [15] deals with Klebsiella pneumoniae. In words: Antibacterial activity against human urinary Klebsiella pneumoniae UCL-1 harboring plasmid-encoded beta-lactamase OXA-48 by Etest method in presence of beta-lactamase inhibitor Tazobactam. It is filed as functional. The following applies: UCL-1, Urine.
Test [16] relates to Escherichia coli. In words: Antibacterial activity against Escherichia coli J53 by Etest method in presence of beta-lactamase inhibitor Tazobactam. It is filed as functional.
The test system of test [17] is Escherichia coli. Description: Antibacterial activity against Escherichia coli J53 harboring plasmid-encoded beta-lactamase OXA-48 by Etest method in presence of beta-lactamase inhibitor Tazobactam. It is filed as functional.

Beta-lactamase OXA-48 (Klebsiella pneumoniae), sequence (Q6XEC0 whole entry, the tested form may be a part): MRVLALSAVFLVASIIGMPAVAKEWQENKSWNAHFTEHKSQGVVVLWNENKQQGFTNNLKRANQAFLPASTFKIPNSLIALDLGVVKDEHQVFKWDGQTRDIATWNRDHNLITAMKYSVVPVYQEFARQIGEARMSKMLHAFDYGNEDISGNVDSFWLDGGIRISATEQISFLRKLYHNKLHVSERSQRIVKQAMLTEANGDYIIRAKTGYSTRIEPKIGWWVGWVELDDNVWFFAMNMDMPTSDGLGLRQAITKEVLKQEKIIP

With `CC1(C)S[C@@H]2[C@H](NC(=O)[C@H](N)c3ccc(O)cc3)C(=O)N2[C@H]1C(=O)O` [AMOXICILLIN], the MIC was above 256 µg/mL in the test with Klebsiella pneumoniae [1]; above 256 µg/mL in the test on Escherichia coli [2]; above 256 µg/mL in the test with Klebsiella pneumoniae [3]; above 256 µg/mL in the test on Escherichia coli [4]; above 256 µg/mL against Klebsiella pneumoniae [5]; 4 µg/mL (≈ 10.9 µM) in the test with Escherichia coli [6]. Further, the MIC against Klebsiella pneumoniae [7] is above 256 µg/mL; in the test on Escherichia coli [8], 4 µg/mL; against Escherichia coli [9] it was above 256 µg/mL; with Escherichia coli [10], above 256 µg/mL.
As to `C[C@H]1[C@H](NC(=O)/C(=N\OC(C)(C)C(=O)O)c2csc(N)n2)C(=O)N1S(=O)(=O)O` [AZTREONAM], the MIC in the test on Escherichia coli [2] was 0.064 µg/mL (≈ 0.147 µM); against Klebsiella pneumoniae [5], above 256 µg/mL; against Klebsiella pneumoniae [7], 0.064 µg/mL (≈ 0.147 µM); in the test on Escherichia coli [9], 0.064 µg/mL (≈ 0.147 µM).
Regarding `CO/N=C(\C(=O)N[C@@H]1C(=O)N2C(C(=O)[O-])=C(C[N+]3(C)CCCC3)CS[C@H]12)c1csc(N)n1` [CEFEPIME], the MIC worked out at 0.125 µg/mL (≈ 0.26 µM) in the test on Escherichia coli [2]; 32 µg/mL (≈ 66.6 µM) with Klebsiella pneumoniae [5]; 0.03 µg/mL (≈ 0.0624 µM) against Escherichia coli [6]; 0.125 µg/mL (≈ 0.26 µM) with Klebsiella pneumoniae [7]; 0.125 µg/mL (≈ 0.26 µM) with Escherichia coli [9].
Turning to `CO/N=C(\C(=O)N[C@@H]1C(=O)N2C(C(=O)O)=C(COC(C)=O)CS[C@H]12)c1csc(N)n1` [CEFOTAXIME], the minimum inhibitory concentration (MIC) against Escherichia coli [2] was found to be 0.38 µg/mL (≈ 0.834 µM); against Klebsiella pneumoniae [5], 64 µg/mL (≈ 141 µM); with Escherichia coli [6], 0.06 µg/mL (≈ 0.132 µM); against Klebsiella pneumoniae [7], 0.125 µg/mL (≈ 0.274 µM); with Escherichia coli [9], 0.38 µg/mL (≈ 0.834 µM).
`CO[C@@]1(NC(=O)Cc2cccs2)C(=O)N2C(C(=O)O)=C(COC(N)=O)CS[C@@H]21` [CEFOXITIN]: the MIC with Escherichia coli [2] worked out at 2 µg/mL (≈ 4.68 µM); with Klebsiella pneumoniae [5], 128 µg/mL (≈ 299 µM); against Escherichia coli [6] it was 2 µg/mL (≈ 4.68 µM); in the test on Klebsiella pneumoniae [7] it was 2 µg/mL (≈ 4.68 µM); with Escherichia coli [9], 2 µg/mL (≈ 4.68 µM).
`CC(C)(O/N=C(\C(=O)N[C@@H]1C(=O)N2C(C(=O)[O-])=C(C[n+]3ccccc3)CS[C@H]12)c1csc(N)n1)C(=O)O` [CEFTAZIDIME]: the MIC is 0.75 µg/mL (≈ 1.37 µM) with Escherichia coli [2]; above 256 µg/mL in the test with Klebsiella pneumoniae [5]; 0.06 µg/mL (≈ 0.11 µM) against Escherichia coli [6]; 1 µg/mL (≈ 1.83 µM) against Klebsiella pneumoniae [7]; 0.75 µg/mL (≈ 1.37 µM) against Escherichia coli [9].
For the molecule `CC(=O)OCC1=C(C(=O)O)N2C(=O)[C@@H](NC(=O)Cc3cccs3)[C@H]2SC1` [CEPHALOTHIN], the MIC in the test on Escherichia coli [2] is 8 µg/mL (≈ 20.2 µM); with Klebsiella pneumoniae [5] it was above 256 µg/mL; against Escherichia coli [6] it was 4 µg/mL (≈ 10.1 µM); with Klebsiella pneumoniae [7], 16 µg/mL (≈ 40.4 µM); with Escherichia coli [9], 8 µg/mL (≈ 20.2 µM).
Take `C[C@@H](O)[C@H]1C(=O)N2C(C(=O)O)=C(S[C@@H]3CN[C@H](C(=O)Nc4cccc(C(=O)O)c4)C3)[C@H](C)[C@H]12` [ERTAPENEM]: the MIC is 2 µg/mL (≈ 4.21 µM) in the test with Escherichia coli [2]; above 32 µg/mL against Klebsiella pneumoniae [5]; 0.03 µg/mL (≈ 0.0631 µM) with Escherichia coli [6]; 4 µg/mL (≈ 8.41 µM) in the test with Klebsiella pneumoniae [7]; 2 µg/mL (≈ 4.21 µM) against Escherichia coli [9]. This molecule came in with an Activity in test [11] of 0.04 µmol/min/mg. Moreover, in the test with Klebsiella pneumoniae [12], the “inhibition zone (IZ)” value worked out at 18 mm.
On to `C[C@@H](O)[C@H]1C(=O)N2C(C(=O)O)=C(SCCNC=N)C[C@H]12` [IMIPENEM ANHYDROUS], for which the minimal inhibitory concentration (MIC) in the test with Escherichia coli [2] was 0.75 µg/mL (≈ 2.51 µM); against Klebsiella pneumoniae [5] it was 64 µg/mL (≈ 214 µM); in the test with Klebsiella pneumoniae [7] it was 0.75 µg/mL (≈ 2.51 µM); against Escherichia coli [9], 1 µg/mL (≈ 3.34 µM). For the same molecule, the Activity in test [11] was 1.6 µmol/min/mg. In the test on Klebsiella pneumoniae [12], the “inhibition zone (IZ)” value is recorded as 22 mm.
`C[C@@H](O)[C@H]1C(=O)N2C(C(=O)O)=C(S[C@@H]3CN[C@H](C(=O)N(C)C)C3)[C@H](C)[C@H]12` [MEROPENEM]: the MIC against Escherichia coli [2] came out at 0.5 µg/mL (≈ 1.3 µM); in the test on Klebsiella pneumoniae [5], 64 µg/mL (≈ 167 µM); in the test with Escherichia coli [6], 0.03 µg/mL (≈ 0.0782 µM); against Klebsiella pneumoniae [7] it was 0.5 µg/mL (≈ 1.3 µM); with Escherichia coli [9] it was 0.5 µg/mL (≈ 1.3 µM). The molecule also returned an Activity in [11] of 0.05 µmol/min/mg. For the same molecule, in the test on Klebsiella pneumoniae [12], the “inhibition zone (IZ)” value was 23 mm.
With `CCN1CCN(C(=O)N[C@@H](C(=O)N[C@@H]2C(=O)N3[C@@H]2SC(C)(C)[C@@H]3C(=O)O)c2ccccc2)C(=O)C1=O` [PIPERACILLIN], the MIC was 128 µg/mL with Escherichia coli [13]; 128 µg/mL (≈ 247 µM) against Escherichia coli [2]; above 256 µg/mL in the test on Klebsiella pneumoniae [14]; 256 µg/mL in the test with Klebsiella pneumoniae [15]; above 256 µg/mL with Klebsiella pneumoniae [5]; 1 µg/mL (≈ 1.93 µM) against Escherichia coli [6]. Moreover, the MIC against Klebsiella pneumoniae [7] was 256 µg/mL (≈ 495 µM); in the test on Escherichia coli [16], 1 µg/mL; in the test with Escherichia coli [17] it was 128 µg/mL; in the test with Escherichia coli [9], 128 µg/mL (≈ 247 µM).
As to `CC1(C)S[C@@H]2[C@H](NC(=O)[C@H](C(=O)O)c3ccsc3)C(=O)N2[C@H]1C(=O)O` [TICARCILLIN], the MIC was above 256 µg/mL in the test with Klebsiella pneumoniae [1]; above 256 µg/mL in the test with Escherichia coli [2]; above 256 µg/mL with Klebsiella pneumoniae [3]; above 256 µg/mL in the test with Escherichia coli [4]; above 256 µg/mL with Klebsiella pneumoniae [5]; 2 µg/mL (≈ 5.2 µM) in the test with Escherichia coli [6]. In addition, the MIC with Klebsiella pneumoniae [7] was above 256 µg/mL; with Escherichia coli [8] it was 2 µg/mL; in the test with Escherichia coli [9], above 256 µg/mL; with Escherichia coli [10], above 256 µg/mL.
`CN(C)c1cc(NC(=O)CNC(C)(C)C)c(O)c2c1C[C@H]1C[C@H]3[C@H](N(C)C)C(O)=C(C(N)=O)C(=O)[C@@]3(O)C(O)=C1C2=O` [TIGECYCLINE]: the MIC in the test with Escherichia coli [2] came out at 0.5 µg/mL (≈ 0.854 µM); with Klebsiella pneumoniae [5], 1.5 µg/mL (≈ 2.56 µM); against Escherichia coli [6], 0.5 µg/mL (≈ 0.854 µM); in the test on Klebsiella pneumoniae [7] it was 2 µg/mL (≈ 3.41 µM); with Escherichia coli [9], 0.5 µg/mL (≈ 0.854 µM).

One may read the MIC as the smallest concentration in the dilution series that meets the test's criterion for growth inhibition.
